Data from ChEMBL document CHEMBL4229542 (Bioorg Med Chem Lett, 2018).

Key:
[1] = Intrinsic clearance in rat liver microsomes assessed per mg protein; type: ADME, microsome; settings: read-out: CLH
[2] = Intrinsic clearance in mouse liver microsomes assessed per mg protein; type: ADME, microsome; settings: read-out: CLH
[3] = Intrinsic clearance in human liver microsomes assessed per mg protein; type: ADME, microsome; settings: read-out: CLH
[4] = Permeability from apical to basolateral side in human Caco2 cells; type: ADME, cell-based; settings: Caco-2, read-out: permeability
Cytochrome P450 2C9 = Cytochrome P450 2C9 (Homo sapiens, UniProt P11712); test: Inhibition of CYP2C9 (unknown origin); type: ADME
Cytochrome P450 3A4 = Cytochrome P450 3A4 (Homo sapiens, UniProt P08684); test: Inhibition of CYP3A4 (unknown origin); type: ADME
[5] = Fraction unbound in rat plasma; type: ADME, cell-free
Cytochrome P450 2C19 = Cytochrome P450 2C19 (Homo sapiens, UniProt P33261); test: Inhibition of CYP2C19 (unknown origin); type: ADME
EGFR = EGFR (Homo sapiens, UniProt P00533); test: Inhibition of EGFR (unknown origin) at 1 uM relative to control
[6] = Fraction unbound in mouse plasma; type: ADME, cell-free
[7] = Fraction unbound in human plasma; type: ADME, cell-free
[8] = Half life in rat at 0.5 mg/kg, po; type: ADME, organism-based; settings: in vivo
[9] = Oral bioavailability in rat at 0.5 mg/kg; type: ADME, organism-based; settings: in vivo
Cytochrome P450 2B6 = target: T1, Cytochrome P450 2B6 (Homo sapiens, UniProt P20813); test: Inhibition of CYP2B6 (unknown origin); type: ADME
T1 sequence (P20813 whole entry): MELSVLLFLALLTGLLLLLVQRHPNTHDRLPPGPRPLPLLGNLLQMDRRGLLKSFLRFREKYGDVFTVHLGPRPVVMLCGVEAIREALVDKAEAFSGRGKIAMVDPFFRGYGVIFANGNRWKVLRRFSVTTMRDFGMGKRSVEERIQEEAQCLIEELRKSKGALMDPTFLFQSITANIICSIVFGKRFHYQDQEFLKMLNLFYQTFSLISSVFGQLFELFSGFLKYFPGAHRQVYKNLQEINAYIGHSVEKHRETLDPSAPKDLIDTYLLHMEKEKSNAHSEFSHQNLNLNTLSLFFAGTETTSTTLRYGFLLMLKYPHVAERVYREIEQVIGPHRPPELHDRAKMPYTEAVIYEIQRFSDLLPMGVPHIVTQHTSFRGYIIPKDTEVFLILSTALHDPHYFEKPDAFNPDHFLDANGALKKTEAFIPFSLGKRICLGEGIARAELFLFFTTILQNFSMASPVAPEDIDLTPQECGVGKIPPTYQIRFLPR

[10] = target: T2, Cytoplasmic tyrosine-protein kinase BMX (Homo sapiens) (UniProt P51813); test: Inhibition of BMX (unknown origin) at 1 uM relative to control
T2 sequence (whole entry): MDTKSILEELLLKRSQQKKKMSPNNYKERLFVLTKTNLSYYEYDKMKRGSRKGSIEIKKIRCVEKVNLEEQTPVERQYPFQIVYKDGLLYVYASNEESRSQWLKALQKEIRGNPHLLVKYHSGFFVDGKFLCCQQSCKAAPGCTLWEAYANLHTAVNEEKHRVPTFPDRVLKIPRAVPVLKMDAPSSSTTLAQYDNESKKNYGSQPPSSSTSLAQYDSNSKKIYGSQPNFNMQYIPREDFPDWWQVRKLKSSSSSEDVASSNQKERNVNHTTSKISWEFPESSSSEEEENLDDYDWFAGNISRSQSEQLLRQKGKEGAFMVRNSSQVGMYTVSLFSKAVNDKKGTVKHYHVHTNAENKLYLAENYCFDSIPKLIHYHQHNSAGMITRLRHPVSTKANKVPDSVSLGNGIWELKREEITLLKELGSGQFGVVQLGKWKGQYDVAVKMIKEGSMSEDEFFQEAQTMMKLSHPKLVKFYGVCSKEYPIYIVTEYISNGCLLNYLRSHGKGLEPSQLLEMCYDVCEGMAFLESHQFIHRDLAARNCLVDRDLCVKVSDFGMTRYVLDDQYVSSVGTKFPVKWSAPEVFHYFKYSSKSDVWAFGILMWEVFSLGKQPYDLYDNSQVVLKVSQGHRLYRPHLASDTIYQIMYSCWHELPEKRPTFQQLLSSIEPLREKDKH

[11] = target: T3, Tyrosine-protein kinase TXK (Homo sapiens) (UniProt P42681); test: Inhibition of TXK (unknown origin) at 1 uM relative to control
T3 sequence (whole entry): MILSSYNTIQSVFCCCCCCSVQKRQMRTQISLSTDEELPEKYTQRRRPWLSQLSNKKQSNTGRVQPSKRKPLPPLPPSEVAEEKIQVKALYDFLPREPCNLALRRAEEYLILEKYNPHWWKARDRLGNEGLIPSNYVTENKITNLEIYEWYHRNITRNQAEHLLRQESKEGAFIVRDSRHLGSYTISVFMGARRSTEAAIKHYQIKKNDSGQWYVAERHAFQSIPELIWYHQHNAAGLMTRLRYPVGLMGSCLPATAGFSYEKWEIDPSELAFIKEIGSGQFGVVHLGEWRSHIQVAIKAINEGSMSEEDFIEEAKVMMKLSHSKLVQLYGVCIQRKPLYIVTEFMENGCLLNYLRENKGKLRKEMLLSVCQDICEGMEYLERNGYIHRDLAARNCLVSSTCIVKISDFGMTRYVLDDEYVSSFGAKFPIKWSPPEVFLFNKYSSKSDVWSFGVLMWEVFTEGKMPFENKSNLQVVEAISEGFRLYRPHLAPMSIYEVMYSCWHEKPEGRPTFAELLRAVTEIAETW

[12] = Clearance in rat at 0.5 mg/kg, po; settings: in vivo
Cytochrome P450 2C8 = target: T4, Cytochrome P450 2C8 (Homo sapiens, UniProt P10632); test: Inhibition of CYP2C8 (unknown origin); type: ADME
T4 sequence (P10632 whole entry): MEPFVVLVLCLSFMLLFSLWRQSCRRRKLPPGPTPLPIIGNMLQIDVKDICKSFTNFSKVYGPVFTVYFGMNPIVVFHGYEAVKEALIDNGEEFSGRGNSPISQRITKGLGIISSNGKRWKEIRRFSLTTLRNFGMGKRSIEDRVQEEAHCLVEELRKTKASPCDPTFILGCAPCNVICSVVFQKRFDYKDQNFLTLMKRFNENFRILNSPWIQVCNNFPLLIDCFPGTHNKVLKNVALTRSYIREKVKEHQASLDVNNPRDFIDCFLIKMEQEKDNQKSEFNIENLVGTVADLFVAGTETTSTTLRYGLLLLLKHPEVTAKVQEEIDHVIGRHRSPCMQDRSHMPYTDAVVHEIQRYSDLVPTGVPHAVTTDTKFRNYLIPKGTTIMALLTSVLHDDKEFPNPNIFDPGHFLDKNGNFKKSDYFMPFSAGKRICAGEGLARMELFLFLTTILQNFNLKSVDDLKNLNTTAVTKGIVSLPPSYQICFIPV

[13] = target: Tyrosine-protein kinase Blk (Homo sapiens) (UniProt P51451); test: Inhibition of Blk (unknown origin) at 1 uM relative to control
[14] = target: Voltage-gated inwardly rectifying potassium channel KCNH2 (Homo sapiens, UniProt Q12809); test: Binding affinity to human ERG
Rattus norvegicus = test: Volume of distribution at steady state in rat at 0.5 mg/kg, po; type: ADME, organism-based; settings: in vivo
[15] = target: Tyrosine-protein kinase BTK (Homo sapiens, UniProt Q06187); test: Inhibition of BTK (unknown origin)
Chain of Tyrosine-protein kinase BTK (Q06187 whole entry): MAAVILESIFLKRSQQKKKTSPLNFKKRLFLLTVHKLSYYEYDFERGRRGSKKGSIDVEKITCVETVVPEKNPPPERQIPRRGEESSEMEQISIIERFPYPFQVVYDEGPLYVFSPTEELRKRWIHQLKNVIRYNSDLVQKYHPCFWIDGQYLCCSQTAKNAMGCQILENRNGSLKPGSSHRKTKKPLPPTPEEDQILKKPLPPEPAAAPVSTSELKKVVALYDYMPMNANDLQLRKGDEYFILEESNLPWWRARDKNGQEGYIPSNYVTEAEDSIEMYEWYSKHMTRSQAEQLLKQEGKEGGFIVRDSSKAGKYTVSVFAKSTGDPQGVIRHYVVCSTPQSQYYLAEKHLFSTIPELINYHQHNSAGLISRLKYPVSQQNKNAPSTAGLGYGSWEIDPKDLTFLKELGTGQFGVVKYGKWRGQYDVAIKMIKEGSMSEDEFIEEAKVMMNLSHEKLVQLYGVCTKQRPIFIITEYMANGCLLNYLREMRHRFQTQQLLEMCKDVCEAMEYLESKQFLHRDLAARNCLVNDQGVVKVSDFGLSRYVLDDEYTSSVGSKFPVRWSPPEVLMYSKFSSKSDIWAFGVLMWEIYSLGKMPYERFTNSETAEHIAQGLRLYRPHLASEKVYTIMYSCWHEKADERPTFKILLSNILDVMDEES

Chain of EGFR (P00533 whole entry): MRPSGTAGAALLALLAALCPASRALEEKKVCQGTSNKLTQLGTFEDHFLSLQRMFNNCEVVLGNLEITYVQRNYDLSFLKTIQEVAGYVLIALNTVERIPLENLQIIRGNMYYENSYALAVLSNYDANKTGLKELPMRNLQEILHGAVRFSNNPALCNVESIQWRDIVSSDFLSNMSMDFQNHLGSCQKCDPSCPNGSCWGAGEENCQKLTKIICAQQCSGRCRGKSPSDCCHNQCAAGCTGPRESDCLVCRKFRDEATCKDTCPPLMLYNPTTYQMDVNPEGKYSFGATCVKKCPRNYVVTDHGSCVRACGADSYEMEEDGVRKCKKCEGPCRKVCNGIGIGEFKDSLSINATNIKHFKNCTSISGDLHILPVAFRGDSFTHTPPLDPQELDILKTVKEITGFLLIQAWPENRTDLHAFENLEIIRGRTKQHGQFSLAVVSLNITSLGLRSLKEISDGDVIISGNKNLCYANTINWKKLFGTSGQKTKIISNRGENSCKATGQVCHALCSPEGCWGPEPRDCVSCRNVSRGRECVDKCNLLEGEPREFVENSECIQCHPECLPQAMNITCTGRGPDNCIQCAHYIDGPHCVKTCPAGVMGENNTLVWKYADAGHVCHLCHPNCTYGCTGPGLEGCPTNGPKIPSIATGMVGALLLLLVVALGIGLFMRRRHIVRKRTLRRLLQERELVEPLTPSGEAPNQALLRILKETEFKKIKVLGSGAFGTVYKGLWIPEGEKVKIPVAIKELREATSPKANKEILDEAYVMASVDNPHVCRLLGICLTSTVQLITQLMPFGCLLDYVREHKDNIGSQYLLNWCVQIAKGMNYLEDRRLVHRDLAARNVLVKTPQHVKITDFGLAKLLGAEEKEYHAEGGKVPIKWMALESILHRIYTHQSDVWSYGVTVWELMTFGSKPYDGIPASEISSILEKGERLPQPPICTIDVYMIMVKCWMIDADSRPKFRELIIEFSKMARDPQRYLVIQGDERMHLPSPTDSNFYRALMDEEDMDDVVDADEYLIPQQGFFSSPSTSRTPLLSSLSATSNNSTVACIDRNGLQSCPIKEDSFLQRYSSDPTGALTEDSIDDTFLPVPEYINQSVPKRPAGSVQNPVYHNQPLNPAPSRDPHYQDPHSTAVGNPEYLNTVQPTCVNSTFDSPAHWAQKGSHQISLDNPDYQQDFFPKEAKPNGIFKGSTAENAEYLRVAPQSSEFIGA
Chain of Cytochrome P450 3A4 (P08684 whole entry): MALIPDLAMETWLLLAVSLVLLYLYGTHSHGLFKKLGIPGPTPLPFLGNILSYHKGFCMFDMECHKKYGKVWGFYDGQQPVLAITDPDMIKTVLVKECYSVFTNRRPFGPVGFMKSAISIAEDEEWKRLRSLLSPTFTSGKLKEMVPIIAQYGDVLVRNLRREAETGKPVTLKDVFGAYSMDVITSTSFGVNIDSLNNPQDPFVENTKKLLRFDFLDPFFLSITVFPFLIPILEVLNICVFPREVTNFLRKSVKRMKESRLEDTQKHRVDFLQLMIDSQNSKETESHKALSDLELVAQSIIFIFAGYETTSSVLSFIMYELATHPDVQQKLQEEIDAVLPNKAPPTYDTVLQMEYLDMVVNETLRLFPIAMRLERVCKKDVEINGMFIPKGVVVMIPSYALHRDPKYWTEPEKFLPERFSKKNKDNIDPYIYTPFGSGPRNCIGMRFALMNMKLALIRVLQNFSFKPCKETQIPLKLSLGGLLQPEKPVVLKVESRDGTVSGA
Chain of Cytochrome P450 2C19 (P33261 whole entry): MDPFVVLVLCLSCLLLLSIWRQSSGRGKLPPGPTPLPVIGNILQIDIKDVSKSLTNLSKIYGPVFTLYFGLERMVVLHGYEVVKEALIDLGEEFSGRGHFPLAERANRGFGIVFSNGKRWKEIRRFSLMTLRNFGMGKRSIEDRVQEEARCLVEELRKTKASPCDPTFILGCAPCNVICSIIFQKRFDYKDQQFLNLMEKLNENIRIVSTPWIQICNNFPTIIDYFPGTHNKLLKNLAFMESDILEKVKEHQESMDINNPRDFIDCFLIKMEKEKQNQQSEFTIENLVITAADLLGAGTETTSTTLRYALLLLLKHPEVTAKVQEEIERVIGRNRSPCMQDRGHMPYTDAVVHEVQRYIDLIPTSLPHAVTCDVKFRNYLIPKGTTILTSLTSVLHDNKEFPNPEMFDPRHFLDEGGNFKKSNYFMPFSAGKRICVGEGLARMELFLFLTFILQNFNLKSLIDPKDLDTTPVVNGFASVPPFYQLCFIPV
Chain of Voltage-gated inwardly rectifying potassium channel KCNH2 (Q12809 whole entry): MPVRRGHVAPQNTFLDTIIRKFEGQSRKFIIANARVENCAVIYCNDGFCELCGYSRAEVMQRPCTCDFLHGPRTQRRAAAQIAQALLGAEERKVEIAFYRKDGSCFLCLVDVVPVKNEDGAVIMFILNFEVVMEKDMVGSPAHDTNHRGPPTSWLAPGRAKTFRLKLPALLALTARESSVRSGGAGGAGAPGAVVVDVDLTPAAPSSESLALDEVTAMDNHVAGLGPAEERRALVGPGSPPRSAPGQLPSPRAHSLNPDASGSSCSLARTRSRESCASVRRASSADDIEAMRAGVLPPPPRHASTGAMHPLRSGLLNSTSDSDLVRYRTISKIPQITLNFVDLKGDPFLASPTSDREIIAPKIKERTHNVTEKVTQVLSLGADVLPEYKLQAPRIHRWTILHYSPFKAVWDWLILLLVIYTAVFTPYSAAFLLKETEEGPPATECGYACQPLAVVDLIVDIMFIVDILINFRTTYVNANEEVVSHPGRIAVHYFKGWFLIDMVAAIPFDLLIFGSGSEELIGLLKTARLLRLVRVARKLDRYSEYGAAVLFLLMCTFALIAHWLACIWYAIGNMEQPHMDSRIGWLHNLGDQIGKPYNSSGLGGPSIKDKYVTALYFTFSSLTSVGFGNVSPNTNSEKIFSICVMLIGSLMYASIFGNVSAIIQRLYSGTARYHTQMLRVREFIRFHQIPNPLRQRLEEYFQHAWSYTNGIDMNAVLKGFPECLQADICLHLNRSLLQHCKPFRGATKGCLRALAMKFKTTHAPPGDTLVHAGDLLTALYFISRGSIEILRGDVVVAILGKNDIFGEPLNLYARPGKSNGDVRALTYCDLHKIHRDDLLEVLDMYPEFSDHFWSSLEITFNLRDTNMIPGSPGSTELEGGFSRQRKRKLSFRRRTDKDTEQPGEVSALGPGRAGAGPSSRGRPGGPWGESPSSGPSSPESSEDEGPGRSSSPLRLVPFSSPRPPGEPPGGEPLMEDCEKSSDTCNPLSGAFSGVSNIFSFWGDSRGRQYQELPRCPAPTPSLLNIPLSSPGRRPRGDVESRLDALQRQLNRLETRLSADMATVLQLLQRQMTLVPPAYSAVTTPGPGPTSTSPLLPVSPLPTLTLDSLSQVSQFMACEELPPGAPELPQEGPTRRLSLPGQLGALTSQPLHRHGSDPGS
Chain of Cytochrome P450 2C9 (P11712 whole entry): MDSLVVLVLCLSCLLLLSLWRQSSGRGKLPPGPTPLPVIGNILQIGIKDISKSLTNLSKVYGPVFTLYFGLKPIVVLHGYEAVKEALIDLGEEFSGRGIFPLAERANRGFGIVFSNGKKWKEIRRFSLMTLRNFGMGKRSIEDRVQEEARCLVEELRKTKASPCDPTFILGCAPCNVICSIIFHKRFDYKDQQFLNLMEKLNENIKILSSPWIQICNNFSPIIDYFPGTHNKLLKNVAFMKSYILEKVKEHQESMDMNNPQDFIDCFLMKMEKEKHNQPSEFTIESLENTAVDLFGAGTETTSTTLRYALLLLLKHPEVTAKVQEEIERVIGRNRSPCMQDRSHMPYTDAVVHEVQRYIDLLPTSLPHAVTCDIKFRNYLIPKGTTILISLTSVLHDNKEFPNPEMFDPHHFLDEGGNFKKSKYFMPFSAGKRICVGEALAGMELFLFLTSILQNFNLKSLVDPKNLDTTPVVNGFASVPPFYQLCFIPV
Chain of Tyrosine-protein kinase Blk (Homo sapiens) (P51451 2-505 limits assumed): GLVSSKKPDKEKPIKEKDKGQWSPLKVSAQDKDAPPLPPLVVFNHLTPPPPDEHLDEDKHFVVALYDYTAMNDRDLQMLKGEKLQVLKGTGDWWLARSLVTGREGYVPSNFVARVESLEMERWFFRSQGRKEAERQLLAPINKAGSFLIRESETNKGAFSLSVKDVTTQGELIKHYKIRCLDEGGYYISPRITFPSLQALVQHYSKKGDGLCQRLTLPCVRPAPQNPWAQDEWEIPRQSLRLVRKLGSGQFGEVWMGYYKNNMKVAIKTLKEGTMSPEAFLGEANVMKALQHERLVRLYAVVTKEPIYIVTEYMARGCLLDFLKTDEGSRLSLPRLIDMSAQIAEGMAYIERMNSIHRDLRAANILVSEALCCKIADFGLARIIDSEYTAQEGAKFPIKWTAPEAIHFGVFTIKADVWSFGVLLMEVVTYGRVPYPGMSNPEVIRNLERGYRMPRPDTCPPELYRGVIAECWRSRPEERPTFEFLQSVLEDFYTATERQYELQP

Compound	microsomal CLint [1] [µL/min/mg]	microsomal CLint [2] [µL/min/mg]	microsomal CLint [3] [µL/min/mg]	Papp A→B [4] [×10⁻⁶ cm/s]	also measured
C=CC(=O)N1CCC[C@@H](n2nc(-c3ccc(Oc4ccccc4)cc3)c3c(N)ncnc32)C1 [IBRUTINIB]	–	–	–	7.2	IC50 (Cytochrome P450 2C9): 8.5 µM; IC50 (Cytochrome P450 3A4): 11 µM; fraction unbound [5]: 0.02; IC50 (Cytochrome P450 2C19): 19 µM; inhibition at 1 µM (EGFR): > 50%; fraction unbound [6]: 0.017; fraction unbound [7]: 0.025; half-life [8]: 30 min; bioavailability [9]: 12%; IC50 (Cytochrome P450 2B6): 11.1 µM
C=CC(=O)NCC1CCCN(c2ccc(C(N)=O)c(Oc3ccc(Oc4ccccc4)cc3)n2)C1 (configuration not stated)	302	562	140	–	–
C=CC(=O)N1C[C@H]2C[C@@H]1CN2c1ccc(C(N)=O)c(Oc2ccc(Oc3ccccc3)cc2)n1	148	472	33	8	–
C=CC(=O)N1C[C@@H]2C[C@H]1CN2c1ccc(C(N)=O)c(Oc2ccc(Oc3ccccc3)cc2)n1	203	62	74	6.7 to 6.8	inhibition [10]: 95%; fraction unbound [5]: 0.0031; inhibition [11]: 54%; fraction unbound [6]: 0.002; CL/F [12]: 20.7 mL/min/kg; IC50 (Cytochrome P450 2C8): 0.1 µM; fraction unbound [7]: 0.0046; inhibition [13]: 96%; half-life [8]: 43.2 min; Ki [14]: 2.2 µM; bioavailability [9]: 47%; Vdss (Rattus norvegicus): 0.86 L/kg
C=CC(=O)N1C2CC1CN(c1ccc(C(N)=O)c(Oc3ccc(Oc4ccccc4)cc3)n1)C2	167	647	49	–	–
C=CC(=O)N1C2CCC1CN(c1ccc(C(N)=O)c(Oc3ccc(Oc4ccccc4)cc3)n1)C2	145	315	106	0.6	–
C=CC(=O)N[C@H]1CCN(c2ccc(C(N)=O)c(Oc3ccc(C(=O)N4CCOCC4)cc3)n2)C1	–	–	–	–	IC50 [15]: 10 µM
C=CC(=O)N[C@@H]1CCCN(c2ccc(C(N)=O)c(Oc3ccc(Oc4ccccc4)cc3)n2)C1	1000	488	309	–	–
C=CC(=O)N[C@H]1CCN(c2ccc(C(N)=O)c(Nc3ccc(C(=O)N4CCOCC4)cc3)n2)C1	–	–	–	–	IC50 [15]: 0.0016 µM

Second part, led by results:

microsomal CLint [1] [µL/min/mg]	microsomal CLint [2] [µL/min/mg]	microsomal CLint [3] [µL/min/mg]	Papp A→B [4] [×10⁻⁶ cm/s]	Compound	also measured
254	228	125	3	C=CC(=O)N1CC[C@H](Nc2ccc(C(N)=O)c(Oc3ccc(Oc4ccccc4)cc3)n2)C1	–
21	27	10	14	C=CC(=O)N[C@H]1CCN(c2ccc(C(N)=O)c(Oc3ccc(Oc4ccccc4)cc3)n2)C1	–
136	191	156	10	C=CC(=O)N1CC[C@@H](Nc2ccc(C(N)=O)c(Oc3ccc(Oc4ccccc4)cc3)n2)C1	–
97	18	< 10	13	C=CC(=O)N1CCN(c2ccc(C(N)=O)c(Oc3ccc(Oc4ccccc4)cc3)n2)CC1	–
